US5340591A, “Method of producing a solid dispersion of the sparingly water-soluble drug, nilvadipine” (Fujisawa Pharmaceutical Co., Ltd., priority 1992, dated 1994)
≈ marks a conversion by molar mass, not a printed value.

Test: Solubility of nilvadipine bulk substance
Format: physicochemical
Conditions: J.P.

## COC(=O)C1=C(C#N)NC(C)=C(C(=O)OC(C)C)C1c1cccc([N+](=O)[O-])c1 (centres unmarked) [nilvadipine bulk substance, nilvadipine]
1st fluid
  solubility: 1.3 µg/mL (≈ 3.37 µM)
2nd fluid
  solubility: 1 µg/mL (≈ 2.59 µM)
